Measured values published in patent publication US20220168258A1, “METHOD FOR TREATING FEMALE NON-SMOKERS WITH NON-SMALL CELL LUNG CANCER” (Lantern Pharma Inc., priority 2019, published 2022).

Experiments:
[1] = test system: chemotherapy-induced toxicities; conditions: human, in vivo
[2] = test system: NSCLC adenocarcinoma patients
[3] = test system: female adenocarcinoma patients; conditions: double-blind, placebo-controlled trial, Japan

disodium 2′-dithio-bis-ethane was tested, and the anemia [1] was “reduced anemia”, the chemotherapy-induced kidney toxicity [1] was “protection against chemotherapy-induced kidney toxicity” and the “neuropathy and other chemotherapy-induced toxicities” value [1] was “protect against neuropathy & other chemotherapy-induced toxicities”. For the same substance, the “survival in all genders and smoking status groups” value ([2]; all genders and smoking status groups) was “marginally increased survival”, the “clinical efficacy endpoints and subgroup responses” value ([2]; background statement) was “did not meet clinical efficacy endpoints” and the “survival in female non-smokers” value ([2]; female non-smokers, increase from 13 months) was 25 months. For the same substance, the “percentage of patients undergoing treatment failure (FIG. 3)” value ([2]; females non-smokers) was “the least”, the 2-year survival ([2]; females with advanced adenocarcinoma of the lung receiving paclitaxel/cisplatin) was 51.4% and the overall survival ([2]; females with advanced adenocarcinoma of the lung receiving paclitaxel/cisplatin, subgroup of 114 female patients, retrospective analysis) was 25.0 months. For the same substance, the “overall survival benefit (FIG. 1)” value ([2]; females, non-smokers and female non-smokers receiving Cisplatin/Paclitaxel) was “remarkable survival benefit”, the “percentage of patients undergoing treatment failure (FIG. 2)” value ([2]; non-smokers) was “the least” and the “HR (overall survival)” value ([2]; subgroup of 114 female patients, retrospective analysis, p-value=0.0477) was 0.579. For the same substance, the “survival result in female adenocarcinoma patients” value [3] was “Consistent statistically significant results”.
